Where two headings read alike, the source gives them in different places.
Columns and labels:
farnesylation of H-Ras = assay: Whole cell inhibition of H-Ras processing (farnesylation), immunoblot, oncogenic H-Ras-transformed NIH3T3 cells; assay type: cell-based, mouse; details: Mus musculus, NIH3T3, whole cells, oncogenic H-Ras-transformed NIH3T3; n = 3 unless stated; read-out: H-Ras processing IC50
Protocol: (§1) In vitro inhibition assays for FTase and GGTase-I were conducted by measuring the incorporation of [^3H]FPP and [^3H]GGPP into recombinant H-Ras-CVLS and H-Ras-CVLL, respectively, as previously described (Vogt, et al., Protein geranylgeranylation, not farnesylation, is required for the G1 to S phase transition in mouse fibroblasts. Oncogene, 1996, 13, 1991-1999). The in vivo inhibition of farnesylation and geranylgeranylation was determined based on the level of inhibition by synthetic compounds of H-Ras and Rap1A processing, respectively (Sun, et al., Both farnesyltransferase and geranylgeranyltransferase I inhibitors are required for inhibition of oncogenic K-Ras prenylation but each alone is sufficient to suppress human tumor growth in nude mouse xenografts. Oncogene, 1998, 16, 1467-1473). […] The separated proteins were transferred to nitrocellulose and immunoblotted using an anti-Ras antibody (Y13-258) or an anti-Rap1A antibody (SantaCruz Biotechnology, Santa Cruz, Calif.), respectively. Antibody reactions were visualized using either peroxidase-conjugated goat anti-rat IgG or goat anti-rabbit IgG (Jackson ImmunoResearch, West Grove, Pa.) and an enhanced chemiluminescence detection system.
(§2) Briefly, in vitro inhibition assays for hFTase and GGTase-I were carried out by measuring the incorporation of [^3H]FPP and [^3H]GGPP into recombinant H-Ras-CVLS and H-Ras-CVLL, respectively, as described previously (Vogt et al., Protein geranylgeranylation, not farnesylation, is required for G1 to S phase transition in mouse fibroblasts. Oncogene. 1996; 13:1991-1999). Whole cell inhibition of farnesylation and geranylgeranylation were determined based on the level of inhibition by synthetic compounds of H-Ras and Rap1A processing, respectively (Sun, et al., Both farnesyltransferase and geranylgeranyltransferase I inhibitors are required for inhibition of oncogenic K-Ras prenylation but each alone is sufficient to suppress human tumor growth in nude mouse xenografts. Oncogene. 1998; 16:1467-1473).

[1] = system: geranylgeranylation of Rap1A; assay: Whole cell inhibition of Rap1A processing (geranylgeranylation), immunoblot, oncogenic H-Ras-transformed NIH3T3 cells; assay type: cell-based, mouse; details: whole cells, oncogenic H-Ras-transformed NIH3T3, n = 3 unless stated, read-out: Rap1A processing IC50
Protocol: as §1, §2

hFTase = hFTase (Homo sapiens, UniProt P49354+P49356); assay: In vitro hFTase inhibition: incorporation of [3H]FPP into recombinant H-Ras-CVLS; assay type: biochemical; details: for selectivity (ratio of GGTase-I to FTase IC50s): GGTase-I IC50 / hFTase IC50; for IC50: in vitro, average of three independent assays (n = 3) unless stated, errors are standard deviations
GGTase-I = GGTase-I (Homo sapiens, UniProt P49354+P53609); assay: In vitro GGTase-I inhibition: incorporation of [3H]GGPP into recombinant H-Ras-CVLL; assay type: biochemical; details: average of n = 3 unless stated, errors are standard deviations, read-out: GGTase-1 IC50
[2] = system: Rap-1A geranylgeranylation; assay: Western blot of Rap-1A geranylgeranylation/processing (antibody to un-geranylgeranylated Rap-1A) in treated cells; assay type: cell-based; details: NIH-3T3 overexpressing mutant K-Ras and MDA-MB-231; FIGS. 14, 15
Protocol: The ability of FGTI-2734 to inhibit HDJ-2 farnesylation and Rap-1A geranylgeranylation in human cancer cells was determined next. To this end, the MiaPaca pancreatic cancer cell line and 2 breast cancer cell lines (MDA-MB-468 and MDA-MB-231) were treated with various concentration of the dual inhibitor FGTI-2734, the GGT-1 inhibitor GGTI-2418 or the FT inhibitor FTI-2153 and processed for Western blotting.
Testing has shown that the dual farnesyltransferase and geranygeranyltransferase-I inhibitors are effective on pancreatic tumors (90% of all cases), colonic tumors (30% of all cases), lung tumors (30% of all cases), and breast tumors (10% of all cases). NIH-3T3 cells that overexpress oncogenic mutant K-Ras, seen in FIG. 14, and MDA-MB-231 breast cancer cells with a naturally occurring K-Ras mutation, seen in FIG. 15, were treated with indicated concentrations of FGTI-2734, GGTI-2417 or FTI-2153. FGTI-2734 but not FTI-2153 or GGTI-2417 inhibited K-Ras prenylation. As expected, GGTI-2417 inhibited the processing of Rap1 but not HDJ-2 whereas FTI-2153 inhibited the processing of HDJ-2 but not Rap1.
Mammalian target of rapamycin (mTOR) is a serine/threonine phosphatidylinositol 3-kinase-related kinase responsible for cell growth, proliferation, cell survival, protein synthesis, and transcription. Alteration of the mTOR pathway, either through activation of oncogenes or inactivation of tumor suppressors, disrupts a signaling equilibrium and causes malignant transformation. Studies have shown that phosphorylated S6 (pS6) is related to mTOR pathway alterations, and is useful in determining PI3K-based cancer therapies (Aziz, et al. Phosphatidylinositol-3-Kinase as a Therapeutic Target in Melanoma. Clin Cancer Res. 2009, 15; 3029-3036). Two breast adenocarcinoma and a pancreatic carcinoma cell line were treated with indicated concentrations of FGTI-2734, GGTI-2417 or FTI-2153. Protein extracts were run on a Western Blot using antibody against pS6 (ser240/244) (Cell Signaling Technology, Inc., Danvers, Mass.). […]

SMILES	IC50 (farnesylation of H-Ras)	IC50 ([1]; Mus musculus)	selectivity (ratio of GGTase-I to FTase IC50s) (hFTase)	IC50 (GGTase-I)	IC50 (hFTase)	GGTase-I/FTase selectivity (hFTase; selectivity for hFTase over GGTase-I)	IC50 [1]	inhibition of Rap1 processing [2]
Cn1cnc(S(=O)(=O)N(CCN(Cc2cncn2C)c2ccc(C#N)cc2)CC(=O)NC(C)(C)C)c1 [1ae]	> 10 µM	> 10 µM	7.1					
Cn1cnc(S(=O)(=O)N(CCN(Cc2cncn2C)c2ccc(C#N)cc2)CCn2cccc2)c1 [1ag]	4.3 ± 1.5 µM	> 10 µM	17					
Cc1nc(C)c(CN(CCN(Cc2cncn2C)c2ccc(C#N)cc2)S(=O)(=O)c2cn(C)cn2)s1 [1am, [N-(2,4-Dimethyl-thiazol-5-ylmethyl), N-{2-[(4-cyanophenyl)-(3-methyl-3H-imidazol-4-ylmethyl)-amino]-ethyl}]1-methyl-1H-imidazole-4-sulfonamide]	> 10 µM	> 10 µM	>1.6					
Cn1cnc(S(=O)(=O)N(CCN(Cc2cncn2C)c2ccc(C#N)cc2)CC2CC2)c1 [1aw, [N-(Cyclopropylmethyl), N-{2-[(4-cyanophenyl)-(3-methyl-3H-imidazol-4-ylmethyl)-amino]-ethyl}]1-methyl-1H-imidazole-4-sulfonamide]	> 10 µM	> 10 µM	>17					
Cn1cnc(S(=O)(=O)N(CCN(Cc2cncn2C)c2ccc(C#N)cc2)CC2CCN(C(=O)OC(C)(C)C)CC2)c1 [1ay]	> 2 µM	> 2 µM	>2.7					
Cn1cncc1CN(CCN(Cc1ccccc1)S(=O)(=O)c1cccc2cccnc12)c1ccc(C#N)cc1 [1g]		> 10 µM		≥ 10 µM		333 fold		
CN(C)c1cccc2c(S(=O)(=O)N(CCN(Cc3cncn3C)c3ccc(C#N)cc3)Cc3ccccc3)cccc12 [1h]	0.5 ± 0.3 µM	> 10 µM	63	≥ 10 µM				
Cn1cncc1CN(CCN(CC1CCCCC1)S(=O)(=O)c1ccccn1)c1ccc(C#N)cc1 [21a, N-(2-((4-cyanophenyl)((1-methyl-1H-imidazol-5-yl)methyl)amino)ethyl)-N-(cyclohexylmethyl)pyridine-2-sulfonamide]	0.268 ± 0.212 µM	6.2 ± 1.2 µM	1.5					
Cn1cncc1CN(CCN(CC1CCCCC1)S(=O)(=O)c1ccccn1)c1ccc(C#N)cn1 [21c, N-(2-((5-cyanopyridin-2-yl)((1-methyl-1H-imidazol-5-yl)methyl)amino)ethyl)-N-(cyclohexylmethyl)pyridine-2-sulfonamide]	0.288 ± 0.251 µM	19 µM	2					
COC(=O)[C@H](CC(C)C)NC(=O)N1CCN(Cc2nc[nH]c2C)C(=O)[C@@H]1Cc1ccccc1 [GGTI-2417, reference compound]								inhibited
Cc1noc(C)c1CN(CCN(Cc1cncn1C)c1ccc(C#N)cc1)S(=O)(=O)c1cn(C)cn1 [compound 1al, [N-(3,5-Dimethyl-isoxazol-4-ylmethyl), N-{2-[(4-cyanophenyl)-(3-methyl-3H-imidazol-4-ylmethyl)-amino]-ethyl}]1-methyl-1H-imidazole-4-sulfonamide]	> 10 µM	> 10 µM	2.7					
Cc1nn(C)c(C)c1CN(CCN(Cc1cncn1C)c1ccc(C#N)cc1)S(=O)(=O)c1cn(C)cn1 [compound 1an, [N-(1,3,5-Trimethyl-1H-pyrazol-4-ylmethyl), N-{2-[(4-cyanophenyl)-(3-methyl-3H-imidazol-4-ylmethyl)-amino]-ethyl}]1-methyl-1H-imidazole-4-sulfonamide]			>1.9	> 10 µM	5300 ± 1700 nM			
Cn1cnc(S(=O)(=O)N(CCN(Cc2cncn2C)c2ccc(C#N)cc2)CC2CCN(c3ncccn3)CC2)c1 [compound 1az]	> 10 µM	> 10 µM	>20					

Second part, led by results:

IC50 (farnesylation of H-Ras)	IC50 ([1]; Mus musculus)	selectivity (ratio of GGTase-I to FTase IC50s) (hFTase)	IC50 (GGTase-I)	IC50 (hFTase)	GGTase-I/FTase selectivity (hFTase; selectivity for hFTase over GGTase-I)	IC50 [1]	SMILES	inhibition of Rap1 processing [2]
> 10 µM	> 10 µM	>139					Cn1cnc(S(=O)(=O)N(CCN(Cc2cncn2C)c2ccc(C#N)cc2)Cc2ccncc2)c1 [1af]	
> 10 µM	> 10 µM	18					Cn1cnc(S(=O)(=O)N(CCN(Cc2cncn2C)c2ccc(C#N)cc2)Cc2ccc(C#N)cc2)c1 [1as]	
		65	5.5 ± 2.7 µM	85 ± 0.7 nM			Cn1cncc1CN(CCN(Cc1ccccc1)S(=O)(=O)C1CC1)c1ccc(C#N)cc1 [1c, N-Benzyl, N-{2-[(4-cyanophenyl)-(3-methyl-3H-imidazol-4-ylmethyl)-amino]-ethyl}cyclopropanesulfonamide]	
	> 10 µM	200	≥ 10 µM				Cn1cncc1CN(CCN(Cc1ccccc1)S(=O)(=O)c1cccs1)c1ccc(C#N)cc1 [1e]	
0.65 µM	> 10 µM	19					Cn1cnc(S(=O)(=O)N(CCN(Cc2cncn2C)c2ccc(C#N)cc2)Cc2ccoc2)c1 [compound 1ah, [N-(Furan-3-ylmethyl), N-{2-[(4-cyanophenyl)-(3-methyl-3H-imidazol-4-ylmethyl)-amino]-ethyl}]1-methyl-1H-imidazole-4-sulfonamide]	
	> 10 µM	85	4.1 ± 1.7 µM	48 ± 35 nM			CCCS(=O)(=O)N(CCN(Cc1cncn1C)c1ccc(C#N)cc1)Cc1ccccc1 [compound 1b, N-Benzyl, N-{2-[(4-cyanophenyl)-(3-methyl-3H-imidazol-4-ylmethyl)-amino]-ethyl}propane-1-sulfonamide]	
5.7 ± 1.2 µM	> 10 µM	6.0	4.4 µM	730 ± 20 nM			Cn1cnc(S(=O)(=O)N(CCN(Cc2cnc[nH]2)c2ccc(Br)cc2)Cc2ccccc2)c1 [compound 4]	
1.6 ± 1.3 µM		6.7	0.53 ± 0.17 µM	79 ± 30 nM		> 10 µM	Cn1cnc(S(=O)(=O)N(CCN(Cc2cncn2C)c2ccc(Br)cc2)Cc2ccccc2)c1 [compound 5]	

Source: US9040563B2, “Dual inhibitors of farnesyltransferase and geranylgeranyltransferase I” (H. Lee Moffitt Cancer Center and Research Institute, Inc., priority 2010, dated 2015)
